In ChEMBL document CHEMBL1154446, “Synthesis and preliminary biological evaluation of new carbon-11 labeled tetrahydroisoquinoline derivatives as SERM radioligands for PET imaging of ER expression in breast cancer” (Eur J Med Chem, 2008):
Activity calls are given as the source filed them. No cut-off for these calls is given here.

Assays:
Assay type in all cases: functional, cell-based
MCF7 [1] = assay: Antiproliferative activity against human MCF7 cells at 0.625 nM after 24 hrs by MTS assay
MCF7 [2] = assay: Antiproliferative activity against human MCF7 cells at >0.625 to 10 nM after 24 hrs by MTS assay
MCF7 [3] = assay: Antiproliferative activity against human MCF7 cells at 0.3125 to 0.625 nM after 24 hrs by MTS assay

Row | Compound | Activity (MCF7 [1]) | Activity (MCF7 [2]) | Activity (MCF7 [3])
1 | COC(=O)C1CCN(CCOc2ccc(C3(C)c4ccc(O)cc4CCN3c3ccc(F)cc3)cc2)CC1 (stereo unspecified) | inactive | Active | –
2 | COC(=O)C1CCN(CCOc2ccc(C3(C)c4ccc(O)cc4CCN3c3ccc(Cl)cc3)cc2)CC1 (stereo unspecified) | – | Active | Active
3 | CCC(=C(c1ccc(O)cc1)c1ccc(OCCN(C)C)cc1)c1ccccc1 | Active | Active | –
